Values quoted from earlier work as cited in patent publication US20240294453A1, “Deuterated agonists and methods of use” (priority 2018, published 2024).

System: subjects with schizophrenia
[1] = 5 mg or 50 mg orally once daily, 24 weeks

## O=C(N[C@@H]1C2CCN(CC2)[C@H]1Cc1cccnc1)c1cc2ccccc2o1 [TC-5619]
[1]
  scores of CSB, UPSA-B, PANSS, CGI-I, CGI-S, or SGI-Cog vs placebo, P (none favored TC-5619): > 0.05
  tolerability: generally well tolerated
5 mg, week 24
  SANS score vs placebo, 2-tailed P: 0.159
Tobacco users, no concordance by dose, country, gender
  benefit in some outcome measures in tobacco users: Sporadic statistical benefit
Week 24, orally once daily, 5 mg or 50 mg, added to a new-generation antipsychotic
  Scale for the Assessment of Negative Symptoms (SANS) composite score, benefit vs placebo: no statistical benefit
